Measurements reported in ChEMBL document CHEMBL4308881, “Tetradehydrohalicyclamine B, a new proteasome inhibitor from the marine sponge Acanthostrongylophora ingens” (Bioorg Med Chem Lett, 2019).
The source made the active and inactive calls. No cut-off for these calls is given here.

How the values were obtained:
Assay type in all cases: cell-based
[1] = biological target: T1, Proteasome subunit beta type-10 (Homo sapiens, UniProt P40306); experiment: Inhibition of 20s immunoproteasome MECL1 in human erythrocytes using Suc-Leu-Leu-ValTyr-MCA as substrate preincubated for 10 mins followed by substrate addition and measured after 6 hrs by fluorescence assay
T1 sequence (P40306 whole entry): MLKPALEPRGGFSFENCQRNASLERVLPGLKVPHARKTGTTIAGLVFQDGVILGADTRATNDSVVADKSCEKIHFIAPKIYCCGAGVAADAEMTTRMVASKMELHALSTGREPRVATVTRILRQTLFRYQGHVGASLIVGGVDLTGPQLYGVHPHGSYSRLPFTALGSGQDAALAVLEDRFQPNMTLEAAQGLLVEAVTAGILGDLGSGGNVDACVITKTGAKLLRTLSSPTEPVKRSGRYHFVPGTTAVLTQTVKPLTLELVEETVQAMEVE

[2] = test system: HeLa; experiment: Cytotoxicity against human HeLa cells after 3 days by MTT assay; conditions: 72 h
[3] = biological target: T2, Proteasome subunit beta type-9 (Homo sapiens, UniProt P28065); experiment: Inhibition of 20s immunoproteasome LMP2 in human erythrocytes using Ac-Pro-Ala-Leu-MCA as substrate preincubated for 10 mins followed by substrate addition and measured after 6 hrs by fluorescence assay
T2 sequence (P28065 whole entry): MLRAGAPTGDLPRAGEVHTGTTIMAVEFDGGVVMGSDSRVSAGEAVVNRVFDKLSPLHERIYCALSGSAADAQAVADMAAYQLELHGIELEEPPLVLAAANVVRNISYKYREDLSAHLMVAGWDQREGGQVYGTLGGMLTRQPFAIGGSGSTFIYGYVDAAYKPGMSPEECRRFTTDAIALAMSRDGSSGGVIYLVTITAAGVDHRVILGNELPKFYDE

[4] = biological target: T3, Proteasome Macropain subunit MB1 (Homo sapiens, UniProt P28074); experiment: Inhibition of 20s constitutive proteasome beta5 chymotrypsin-like activity in human erythrocytes using Suc-Leu-Leu-ValTyr-MCA as substrate preincubated for 10 mins followed by substrate addition and measured after 6 hrs by fluorescence assay
T3 sequence (P28074 whole entry): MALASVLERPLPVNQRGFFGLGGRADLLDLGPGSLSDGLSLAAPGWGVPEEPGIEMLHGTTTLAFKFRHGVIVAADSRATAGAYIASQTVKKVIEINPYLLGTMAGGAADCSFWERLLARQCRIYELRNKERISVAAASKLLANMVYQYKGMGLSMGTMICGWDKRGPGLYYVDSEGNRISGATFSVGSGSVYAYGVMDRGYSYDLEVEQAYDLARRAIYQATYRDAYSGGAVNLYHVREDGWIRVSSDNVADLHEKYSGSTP

[5] = biological target: T4, Proteasome subunit beta type-8 (Homo sapiens, UniProt P28062); experiment: Inhibition of 20s immunoproteasome LMP7 in human erythrocytes using Suc-Leu-Leu-ValTyr-MCA as substrate preincubated for 10 mins followed by substrate addition and measured after 6 hrs by fluorescence assay
T4 sequence (P28062 whole entry): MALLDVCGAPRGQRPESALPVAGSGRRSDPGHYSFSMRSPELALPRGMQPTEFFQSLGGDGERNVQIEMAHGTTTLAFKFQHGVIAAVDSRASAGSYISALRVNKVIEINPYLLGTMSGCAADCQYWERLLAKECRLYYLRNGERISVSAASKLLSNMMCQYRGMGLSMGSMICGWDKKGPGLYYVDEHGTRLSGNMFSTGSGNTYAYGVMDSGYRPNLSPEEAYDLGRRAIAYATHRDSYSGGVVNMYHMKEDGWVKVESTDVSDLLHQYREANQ

[6] = biological target: T5, Proteasome subunit beta type-10 (Homo sapiens) (UniProt P40306); experiment: Inhibition of 20s immunoproteasome MECL1 in human erythrocytes at 15 uM using Suc-Leu-Leu-ValTyr-MCA as substrate preincubated for 10 mins followed by substrate addition and measured after 6 hrs by fluorescence assay
T5 sequence (whole entry): T1 sequence (P40306 whole entry)

[7] = test system: HeLa; experiment: Cytotoxicity against human HeLa cells at 50 uM after 3 days by MTT assay; conditions: 72 h

SMILES: C1=C2CN3CCCC/C=C\CC[C@@H]4CN(CCCC/C=C\CC[C@H]1C3)CC[C@@H]24
- IC50 [1]: 8000 nM
- IC50 [2]: 12000 nM
- IC50 [3]: 440 nM
- IC50 [4]: 420 nM
- IC50 [5]: 630 nM

SMILES: C1=C\CCc2cc3c[n+](c2)CCCC/C=C\CC[C@@H]2CN(CCCC/1)CC[C@@H]32
- IC50 [3]: 3100 nM
- IC50 [4]: 1800 nM
- inhibition [6]: inactive
- Activity [7]: Non-Toxic
- IC50 [5]: 4100 nM
